In US7196110B2, “N-substituted tricyclic 3-aminopyrazoles as inhibitors for the treatment of cell proliferative disorders” (Janssen Phamaceutica N.V., priority 2002, dated 2007) one finds inhibition and IC50 data, which are given here for 31 molecules.

The target of the assay is T1, PDGF-receptor beta enzyme comprising the tyrosine kinase domain (Homo sapiens, UniProt P09619).
T1 construct: from amino acid 545 to 1106 of GenBank Access NO: AAA36427
The experiment in a line: Inhibition of PDGF-receptor kinase activity (cell-free, PLC1 peptide, 33P Flashplate). The assay is classed as biochemical. The note with it: for inhibition at 10 µM: compound at 10 uM, read-out: Percent Inhibition @ 10 uM. The procedure, abridged: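 The IC50 is the inhibitor level halving kinase activity relative to inhibitor-free wells, measured as 33P captured on a streptavidin-bound biotin-PLC1 peptide. The reaction ran 60 min at 30 °C in pH 8 Tris buffer with 1 mM DTT, 5 μM ATP and the 545–1106 kinase-domain enzyme.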

[1] abbreviates: PDGF-R kinase activity, read-out: IC50.
Where [2] appears, read: read-out: IC50 (μM) on PDGF-R kinase activity.

Where two headings read alike, the source gives them in different places.

T1 sequence (P09619 545-1106): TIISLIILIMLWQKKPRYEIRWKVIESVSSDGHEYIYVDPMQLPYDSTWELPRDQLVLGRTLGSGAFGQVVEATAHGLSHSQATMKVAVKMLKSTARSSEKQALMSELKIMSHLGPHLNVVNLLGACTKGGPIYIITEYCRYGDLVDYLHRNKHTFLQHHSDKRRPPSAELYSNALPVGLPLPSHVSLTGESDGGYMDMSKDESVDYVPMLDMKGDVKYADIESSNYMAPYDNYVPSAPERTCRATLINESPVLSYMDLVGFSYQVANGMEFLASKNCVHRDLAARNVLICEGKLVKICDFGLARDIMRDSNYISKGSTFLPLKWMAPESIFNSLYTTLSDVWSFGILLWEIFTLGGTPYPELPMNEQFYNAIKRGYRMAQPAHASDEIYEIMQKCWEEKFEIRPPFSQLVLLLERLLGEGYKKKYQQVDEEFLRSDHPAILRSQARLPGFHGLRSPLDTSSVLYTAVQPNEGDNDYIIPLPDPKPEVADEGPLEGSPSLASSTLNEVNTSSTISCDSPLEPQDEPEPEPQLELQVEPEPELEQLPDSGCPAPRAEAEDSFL

The inhibition is the change of the read-out against control, counted positive when it falls. The IC50 is the concentration that inhibits the measured activity by half. As to `CCOc1cccc(Nc2[nH]nc3c2Cc2c(OCCCN4CCOCC4)cccc2-3)c1` [Compound 394, (3-Ethoxy-phenyl)-[5-(3-morpholin-4-yl-propoxy)-2,4-dihydro-indeno[1,2-c]pyrazol-3-yl]-amine], the inhibition at 10 µM (PDGF-R kinase activity) is 91%. Besides, the concentration for half-maximal inhibition (IC50) under setting [1] was 0.329 µM.

For the molecule `CC1c2ccccc2-c2n[nH]c(Nc3cc(F)ccc3F)c21` (centres unmarked) [Compound 112, (2,5-Difluoro-phenyl)-(4-methyl-2,4-dihydro-indeno[1,2-c]pyrazol-3-yl)-amine], the inhibition at 10 µM (PDGF-R kinase activity) stood at 72%. Under setting [1], the IC50 came to 0.083 µM. Taken in the same sequence, the figures for `Cc1ccc2c(c1)-c1n[nH]c(Nc3ccc4[nH]ccc4c3)c1C2` [Compound 311, (1H-Indol-5-yl)-(7-methyl-2,4-dihydro-indeno[1,2-c]pyrazol-3-yl)-amine] were 68.5% and 0.0748 µM.

In the case of `COc1ccc2c(c1)-c1n[nH]c(Nc3cccnc3)c1C2` [Compound 173, (7-Methoxy-2,4-dihydro-indeno[1,2-c]pyrazol-3-yl)-pyridin-3-yl-amine], the inhibition at 10 µM (PDGF-R kinase activity) was 87%. For the same molecule, the half-maximal inhibitory concentration (IC50) under setting [1] was 0.215 µM. On to `COc1cc2c(cc1OC)-c1c(c(Nc3cccc(F)c3)nn1C(=O)CC(=O)N1CCCC1)C2` [Compound 536, 1-[3-(3-Fluoro-phenylamino)-6,7-dimethoxy-4H-indeno[1,2-c]pyrazol-1-yl]-3-pyrrolidin-1-yl-propane-1,3-dione], for which the inhibition at 10 µM (PDGF-R kinase activity) is 88%. Further, under setting [1], the IC50 came out at 0.436 µM. With `COc1ccc(Nc2[nH]nc3c2Cc2cc(OC)c(OC)cc2-3)cc1Cl` [Compound 277, (3-Chloro-4-methoxy-phenyl)-(6,7-dimethoxy-2,4-dihydro-indeno[1,2-c]pyrazol-3-yl)-amine], where the note is “PDGF-R kinase activity”, the inhibition at 10 µM was 88%. In addition, the IC50 under setting [1] was found to be 1.36 µM. Turning to `COc1cc2c(cc1OC)-c1c(c(Nc3cccc(F)c3)nn1S(=O)(=O)N(C)C)C2` [Compound 447, 3-(3-Fluoro-phenylamino)-6,7-dimethoxy-4H-indeno[1,2-c]pyrazole-1-sulfonic acid dimethylamide], the inhibition at 10 µM (PDGF-R kinase activity) stood at 7%. `Cc1cccc2c1Cc1c-2n[nH]c1Nc1ccc(C(F)(F)F)cc1` [Compound 105, (5-Methyl-2,4-dihydro-indeno[1,2-c]pyrazol-3-yl)-(4-trifluoromethyl-phenyl)-amine]: the inhibition at 10 µM (PDGF-R kinase activity) is 69%. Besides, under setting [1], the IC50 stood at 1.88 µM. Taken in the same sequence, the figures for `COc1cc2c(cc1OC)-c1nn(C(=O)NCCN3CCOCC3)c(Nc3cccc(F)c3)c1C2` [Compound 522, 3-(3-Fluoro-phenylamino)-6,7-dimethoxy-4H-indeno[1,2-c]pyrazole-2-carboxylic acid (2-morpholin-4-yl-ethyl)-amide] were 94% and 0.791 µM.

In the case of `COc1cc2c(cc1OC)C(C)c1c-2n[nH]c1Nc1cccc(OCc2ccccc2)c1` (centres unmarked) [Compound 254, (3-Benzyloxy-phenyl)-(6,7-dimethoxy-4-methyl-2,4-dihydro-indeno[1,2-c]pyrazol-3-yl)-amine], for the setting “PDGF-R kinase activity”, the inhibition at 10 µM was 89%. Moreover, under setting [1], the IC50 was determined as 0.181 µM. `FC(F)(F)c1cc(Nc2[nH]nc3c2Cc2cc(Cl)ccc2-3)cc(C(F)(F)F)c1` [Compound 195, (3,5-Bis-trifluoromethyl-phenyl)-(6-chloro-2,4-dihydro-indeno[1,2-c]pyrazol-3-yl)-amine]: the inhibition at 10 µM (PDGF-R kinase activity) came out at 76%. Moreover, the IC50 under setting [1] was found to be 2.28 µM. Taken in the same sequence, the figures for `COc1cc2c(cc1OC)-c1c(c(Nc3cccc(F)c3)nn1CC(C)O)C2` (centres unmarked) [Compound 502, 1-[3-(3-Fluoro-phenylamino)-6,7-dimethoxy-4H-indeno[1,2-c]pyrazol-1-yl]-propan-2-ol] were 60.5% and 54 µM. Taken in the same sequence, the figures for `COc1ccc(Nc2[nH]nc3c2Cc2ccc(OC)cc2-3)cc1` [Compound 171, (7-Methoxy-2,4-dihydro-indeno[1,2-c]pyrazol-3-yl)-(4-methoxy-phenyl)-amine] were 92.5% and 0.123 µM. On to `CCC1c2cc(OC)c(OC)cc2-c2c1c(Nc1cccc(Br)c1)nn2C(=O)OCCOCCOCCO` (centres unmarked) [Compound 547, 3-(3-Bromo-phenylamino)-4-ethyl-6,7-dimethoxy-4H-indeno[1,2-c]pyrazole-1-carboxylic acid 2-[2-(2-hydroxy-ethoxy)-ethoxy]-ethyl ester], for which the inhibition at 10 µM (PDGF-R kinase activity) was determined as 68.5%. On the same count and under the same terms, in the case of `Cc1ccc2c(c1)-c1n[nH]c(Nc3cccc(C(F)(F)F)c3)c1C2` [Compound 187, (7-Methyl-2,4-dihydro-indeno[1,2-c]pyrazol-3-yl)-(3-trifluoromethyl-phenyl)-amine] it was 35%. Turning to `Clc1ccc2c(c1)Cc1c-2n[nH]c1Nc1ccccc1` [Compound 21, (6-Chloro-2,4-dihydro-indeno[1,2-c]pyrazol-3-yl)-phenyl-amine], the inhibition at 10 µM (PDGF-R kinase activity) was 103%. Further, the IC50 under setting [1] was determined as 0.121 µM. With `COc1cc2c(cc1OC)-c1n[nH]c(Nc3ccccc3OC(F)(F)F)c1C2` [Compound 15, (6,7-Dimethoxy-2,4-dihydro-indeno[1,2-c]pyrazol-3-yl)-(2-trifluoromethoxy-phenyl)-amine], the inhibition at 10 µM (PDGF-R kinase activity) is 79%. Further, the IC50 under setting [1] is 1.92 µM. Consider `CCOc1cc2c(cc1OCC)-c1n[nH]c(NCc3ccccc3)c1C2` [Compound 264, Benzyl-(6,7-diethoxy-2,4-dihydro-indeno[1,2-c]pyrazol-3-yl)-amine], for which, where the note is “PDGF-R kinase activity”, the inhibition at 10 µM was determined as 86%. Further, the IC50 under setting [1] was determined as 0.0852 µM. Taken in the same sequence, the figures for `COc1ccc(OC)c(Nc2[nH]nc3c2Cc2cc(OCCCN(C)C)ccc2-3)c1` [Compound 162, (2,5-Dimethoxy-phenyl)-[6-(3-dimethylamino-propoxy)-2,4-dihydro-indeno[1,2-c]pyrazol-3-yl]-amine] were 21.5% and 54.9 µM. As to `Clc1cccc(Nc2[nH]nc3c2Cc2sccc2-3)c1` [Compound 403, (3-Chloro-phenyl)-(5,7-dihydro-1-thia-4,5-diaza-cyclopenta[a]pentalen-6-yl)-amine], the inhibition at 10 µM (PDGF-R kinase activity) was 96%. The IC50 under setting [1] is 0.0859 µM.

Turning to `Fc1cccc(Nc2[nH]nc3c2Cc2c(OCCCN4CCOCC4)cccc2-3)c1` [Compound 393, (3-Fluoro-phenyl)-[5-(3-morpholin-4-yl-propoxy)-2,4-dihydro-indeno[1,2-c]pyrazol-3-yl]-amine], the inhibition at 10 µM (PDGF-R kinase activity) came to 94.5%. In addition, under setting [1], the IC50 was found to be 0.174 µM. Taken in the same sequence, the figures for `COc1cc2c(cc1OC)-c1n[nH]c(Nc3cc(OC)c(OC)c(OC)c3)c1C2` [Compound 42, (6,7-Dimethoxy-2,4-dihydro-indeno[1,2-c]pyrazol-3-yl)-(3,4,5-trimethoxy-phenyl)-amine] were 85% and 0.692 µM. On to `COc1cc2c(cc1OC)-c1n[nH]c(Nc3cnccc3C(F)(F)F)c1C2` [Compound 577, (6,7-Dimethoxy-2,4-dihydro-indeno[1,2-c]pyrazol-3-yl)-(4-trifluoromethyl-pyridin-3-yl)-amine], for which, for the setting “PDGF-R kinase activity”, the inhibition at 10 µM was found to be 19%. In addition, under setting [2], the IC50 was 362 µM. Taken in the same sequence, the figures for `COc1cc2c(cc1OC)-c1nn(C)c(Nc3cccc(F)c3)c1C2` [Compound 610, (6,7-dimethoxy-2-methyl-1,4-dihydro-indeno[1,2-c]pyrazole-3-yl)-(3-fluoro-phenyl)-amine] were 51.5% and 9.38 µM. On to `COc1cccc(CNc2[nH]nc3c2Cc2cc(OC)c(OC)cc2-3)c1` [Compound 225, (6,7-Dimethoxy-2,4-dihydro-indeno[1,2-c]pyrazol-3-yl)-(3-methoxy-benzyl)-amine], for which the inhibition at 10 µM (PDGF-R kinase activity) stood at 90%. The IC50 under setting [1] worked out at 0.0744 µM. Taken in the same sequence, the figures for `COc1cccc(Nc2[nH]nc3c2Cc2cc(OC(C)C)c(OC(C)C)cc2-3)c1` [Compound 168, (6,7-Diisopropoxy-2,4-dihydro-indeno[1,2-c]pyrazol-3-yl)-(3-methoxy-phenyl)-amine] were 91% and 0.0688 µM. Taken in the same sequence, the figures for `CCC1c2cc(OC)c(OC)cc2-c2c1c(Nc1cccc(Br)c1)nn2C(=O)COCc1ccccc1` (centres unmarked) [Compound 519, 2-Benzyloxy-1-[3-(3-bromo-phenylamino)-4-ethyl-6,7-dimethoxy-4H-indeno[1,2-c]pyrazol-1-yl]-ethanone] were 97.5% and 0.139 µM. As for `COc1ccc2c(c1)Cc1c-2n[nH]c1Nc1cc(OC)ccc1OC` [Compound 85, (2,5-Dimethoxy-phenyl)-(6-methoxy-2,4-dihydro-indeno[1,2-c]pyrazol-3-yl)-amine], the inhibition at 10 µM (PDGF-R kinase activity) stood at 61%. In addition, the IC50 under setting [1] came out at 5.82 µM. As to `COc1cccc([C@H](C)Nc2[nH]nc3c2Cc2cc(OC)c(OC)cc2-3)c1` (single isomer, unassigned) [Compound 324, (6,7-Dimethoxy-2,4-dihydro-indeno[1,2-c]pyrazol-3-yl)-[1-(3-methoxy-phenyl)-ethyl]-amine], the inhibition at 10 µM (PDGF-R kinase activity) stood at 74.5%. Moreover, the IC50 under setting [1] came to 1.32 µM. Taken in the same sequence, the figures for `COc1ccc(OC)c(Nc2[nH]nc3c2Cc2ccc(OC)cc2-3)c1` [Compound 174, (2,5-Dimethoxy-phenyl)-(7-methoxy-2,4-dihydro-indeno[1,2-c]pyrazol-3-yl)-amine] were 83% and 0.346 µM. Taken in the same sequence, the figures for `CCCC(=O)OCn1nc2c(c1Nc1cccc(F)c1)Cc1cc(OC)c(OC)cc1-2` [Compound 491, Butyric acid 3-(3-fluoro-phenylamino)-6,7-dimethoxy-4H-indeno[1,2-c]pyrazol-2-ylmethyl ester] were 92% and 0.314 µM.
